Measured values as given in ChEMBL document CHEMBL5233277, “Oxidative Metabolism as a Modulator of Kratom's Biological Actions” (J Med Chem, 2021).
The source made the active and inactive calls. No cut-off for these calls is given here.

Assays:
[1] = Drug metabolism in 129Sv6 mouse liver microsomes assessed as 3-dehydromitragynine formation at 1 uM incubated for 60 mins by LC-MS/MS analysis; assay type: ADME, Microsome; details: 1 h
[2] = Drug metabolism in 129Sv6 mouse liver microsomes assessed as mitragynine pseudoindoxyl formation at 1 uM incubated for 60 mins in presence of ketoconazole by LC-MS/MS analysis; assay type: ADME, Microsome; details: 1 h
[3] = Drug metabolism in human liver microsomes assessed as compound depletion at 1 uM incubated for 60 mins in presence of NADPH by LC-MS/MS analysis; assay type: ADME, Microsome; details: 1 h
[4] = test system: Mus musculus; experiment: Antinociceptive activity in DOR knock out C57BL/6J mouse at 45 mg/kg, po measured after 20 mins; assay type: functional, organism-based
[5] = biological target: Cytochrome P450 3A (Homo sapiens, UniProt P08684+P20815+Q9HB55+P24462); experiment: Metabolic stability in human liver microsomes assessed as CYP3A-mediated decomposition by measuring half life at 1 uM incubated for 60 mins in presence of ketoconazole by LC-MS/MS analysis; assay type: ADME, Microsome; details: 1 h
[6] = test system: Mus musculus; experiment: Antinociceptive activity in po dosed 129Sv6 mouse model assessed as time required for peak effect at ED50 by radiant heat tail flick assay; assay type: functional
[7] = Drug metabolism in 129Sv6 mouse liver microsomes assessed as mitragynine pseudoindoxyl formation at 1 uM incubated for 60 mins by LC-MS/MS analysis; assay type: ADME, Microsome; details: 1 h
[8] = Drug metabolism in human liver microsomes assessed as 3-dehydromitragynine formation at 1 uM incubated for 60 mins in presence of ketoconazole by LC-MS/MS analysis; assay type: ADME, Microsome; details: 1 h
[9] = test system: Mus musculus; experiment: Antinociceptive activity in sc dosed C57BL/6J mouse model assessed as time required for peak effect at ED50 by radiant heat tail flick assay; assay type: functional
[10] = Drug metabolism in human liver microsomes assessed as 3-dehydromitragynine formation at 1 uM incubated for 60 mins in presence of NADPH by LC-MS/MS analysis; assay type: ADME, Microsome; details: 1 h
[11] = test system: Mus musculus; experiment: Antinociceptive activity in KOR knock out 129Sv6 mouse at 10 mg/kg, po measured after 15 mins; assay type: functional, organism-based
[12] = Drug concentration in C57BL/6J mouse brain at 30 mg/kg, po measured after 20 mins by LC-MS/MS analysis; assay type: ADME, organism-based; details: read-out: Ct
[13] = Drug metabolism in C57BL/6J mouse liver microsomes assessed as mitragynine pseudoindoxyl formation at 1 uM incubated for 60 mins by LC-MS/MS analysis; assay type: ADME, Microsome; details: 1 h
[14] = test system: Mus musculus; experiment: Antinociceptive activity in DOR knock out 129Sv6 mouse at 10 mg/kg, po measured after 15 mins; assay type: functional, organism-based
[15] = Drug metabolism in human liver microsomes assessed as mitragynine pseudoindoxyl formation at 1 uM incubated for 60 mins by LC-MS/MS analysis; assay type: ADME, Microsome; details: 1 h
[16] = test system: Mus musculus; experiment: Antinociceptive activity in KOR knock out C57BL/6J mouse at 45 mg/kg, po measured after 20 mins; assay type: functional, organism-based
[17] = test system: Mus musculus; experiment: Antinociceptive activity in po dosed C57BL/6J mouse model assessed as peak effect measured at 20 mins by radiant heat tail flick assay; assay type: functional
[18] = biological target: T1, Cytochrome P450 3A (Mus musculus, UniProt O09158+Q64464+Q64481+Q9JMA7); experiment: Metabolic stability in CYP3A KO C57BL/6J mouse liver microsomes assessed as CYP3A-mediated decomposition by measuring half life at 1 uM incubated for 60 mins in presence of ketoconazole by LC-MS/MS analysis; assay type: ADME, Microsome; details: 1 h
[19] = Toxicity in C57BL/6J mouse assessed as effect on locomotion at 20 mg/kg, po measured after 3 hrs; assay type: organism-based; details: in vivo
[20] = Drug metabolism in 129Sv6 mouse plasma assessed as 3-dehydromitragynine formation at ED80, po; assay type: ADME, cell-free
[21] = test system: Mus musculus; experiment: Antinociceptive activity in sc dosed C57BL/6J mouse model assessed as peak effect measured at 20 mins by radiant heat tail flick assay; assay type: functional
[22] = biological target: T1, Cytochrome P450 3A; experiment: Metabolic stability in C57BL/6J mouse liver microsomes assessed as CYP3A-mediated decomposition by measuring half life at 1 uM incubated for 60 mins in presence of ketoconazole by LC-MS/MS analysis; assay type: ADME, Microsome; details: 1 h
[23] = Drug metabolism in 129Sv6 mouse brain assessed as 3-dehydromitragynine formation at ED80, po; assay type: ADME, tissue-based
[24] = Drug metabolism in human liver microsomes assessed as compound depletion at 1 uM incubated for 60 mins in absence of NADPH by LC-MS/MS analysis; assay type: ADME, Microsome; details: 1 h
[25] = Drug metabolism in human S9 fraction assessed as mitragynine pseudoindoxyl formation at 1 uM incubated for 60 mins in absence of NADPH by LC-MS/MS analysis; assay type: ADME, subcellular; details: s9, 1 h
[26] = Drug metabolism in C57BL/6J mouse liver microsomes assessed as 3-dehydromitragynine formation at 1 uM incubated for 60 mins in presence of ketoconazole by LC-MS/MS analysis; assay type: ADME, Microsome; details: 1 h
[27] = test system: Mus musculus; experiment: Antinociceptive activity in po dosed C57BL/6J mouse model assessed as time required for peak effect at ED50 by radiant heat tail flick assay; assay type: functional
[28] = Drug metabolism in human S9 fraction assessed as mitragynine pseudoindoxyl formation at 1 uM incubated for 60 mins in presence of NADPH by LC-MS/MS analysis; assay type: ADME, subcellular; details: s9, 1 h
[29] = Drug metabolism in 129Sv6 mouse liver microsomes assessed as 3-dehydromitragynine formation at 1 uM incubated for 60 mins in presence of ketoconazole by LC-MS/MS analysis; assay type: ADME, Microsome; details: 1 h
[30] = Drug metabolism in 129Sv6 mouse brain assessed as mitragynine pseudoindoxyl formation at 10 mg/kg, po measured after 15 mins by LC-MS/MS analysis; assay type: ADME, organism-based; details: in vivo, 0.25 h
[31] = Drug metabolism in human liver microsomes assessed as mitragynine pseudoindoxyl formation at 1 uM incubated for 60 mins in presence of NADPH by LC-MS/MS analysis; assay type: ADME, Microsome; details: 1 h
[32] = test system: Mus musculus; experiment: Antinociceptive activity in MOR knock out 129Sv6 mouse at 10 mg/kg, po measured after 15 mins; assay type: functional, organism-based
[33] = Drug metabolism in C57BL/6J mouse plasma assessed as mitragynine pseudoindoxyl formation at 30 mg/kg, po measured after 20 mins by LC-MS/MS analysis; assay type: ADME, organism-based; details: in vivo
[34] = Drug concentration in C57BL/6J mouse plasma at 30 mg/kg, po measured after 24 hrs by LC-MS/MS analysis; assay type: ADME, organism-based; details: in vivo, BLD = below limit of detection
[35] = Drug metabolism in human S9 fractions assessed as 3-dehydromitragynine formation at 1 uM incubated for 60 mins in absence of NADPH by LC-MS/MS analysis; assay type: ADME, subcellular, S9 fraction; details: s9, 1 h
[36] = test system: Mus musculus; experiment: Antinociceptive activity in MOR knock out C57BL/6J mouse at 45 mg/kg, po measured after 20 mins; assay type: functional, organism-based
[37] = test system: Mus musculus; experiment: Antinociceptive activity in sc dosed 129Sv6 mouse model assessed as time required for peak effect at ED50 by radiant heat tail flick assay; assay type: functional
[38] = Drug metabolism in C57BL/6J mouse liver microsomes assessed as 3-dehydromitragynine formation at 1 uM incubated for 60 mins by LC-MS/MS analysis; assay type: ADME, Microsome; details: 1 h
[39] = Drug metabolism in C57BL/6J mouse plasma assessed as 3-dehydromitragynine formation at ED80, po; assay type: ADME, cell-free
[40] = test system: Mus musculus; experiment: Antinociceptive activity in po dosed 129Sv6 mouse model assessed as peak effect measured at 15 mins by radiant heat tail flick assay; assay type: functional; details: 129Sv6, 0.25 h

With `CC[C@@H]1CN2CCc3c([nH]c4cccc(OC)c34)[C@@H]2C[C@@H]1/C(=C\OC)C(=O)OC` the Drug metabolism [1] was “Metabolite_Detected”, the Drug metabolism [2] was “Metabolite_Notdetected” and the Drug metabolism [3] was “Metabolite_Detected”. For the same molecule, the Activity [4] was “Active”, the t1/2 [5] was 37.4 min and the Time [6] was 15 min. The Drug metabolism [7] was “Metabolite_Detected”, the Drug metabolism [8] was “Metabolite_Detected” and the Time [9] was 15 min. For the same molecule, the Drug metabolism [10] was “Metabolite_Detected”, the Activity [11] was “Active” and the concentration at 20 min [12] was 6.63 µM. The Drug metabolism [13] was “Metabolite_Detected”, the Activity [14] was “Active” and the Drug metabolism [15] was “Metabolite_Detected”. For the same molecule, the Activity [16] was “Active”, the ED50 [17] was 6.25 mg/kg and the t1/2 [18] was 25.2 min. For the same molecule, the Activity [19] was “Non-Toxic”, the Drug metabolism [20] was 0.028 µM and the ED50 [21] was 25.9 mg/kg. The t1/2 [22] was 35.8 min, the Drug metabolism [23] was 0.035 µM and the Drug metabolism [24] was “Metabolite_Notdetected”. The Drug metabolism [25] was “Metabolite_Notdetected”, the Drug metabolism [26] was “Metabolite_Detected” and the Time [27] was 15 min. For the same molecule, the Drug metabolism [28] was “Metabolite_Detected”, the Drug metabolism [29] was “Metabolite_Detected” and the Drug metabolism [30] was 180 nM. For the same molecule, the Drug metabolism [31] was “Metabolite_Detected”, the Activity [32] was “inactive” and the Drug metabolism [33] was 20 nM. For the same molecule, the Cp [34] was “Bld”, the Drug metabolism [35] was “Metabolite_Detected” and the Activity [36] was “inactive”. For the same molecule, the Time [37] was 15 min, the Drug metabolism [38] was “Metabolite_Detected” and the Drug metabolism [39] was 0.037 µM. For the same molecule, the ED50 [40] was 4 mg/kg.
